Structures can show the parent of a compound that is named as a salt. Where two headings read alike, the source gives them in different places.

Holding throughout (assay type): cell-based
One test relates to Target C. As to the kind of experiment: Gene panel canonical junction qPCR assay, Target C CJ mRNA. Particulars: Table 9, CJ mRNA decrease, read-out: Target C IC50 (decrease in CJ mRNA levels). Here is the method:
(§1) To set up 10 uL RT-qPCR reactions, cell lysates were transferred to 384-well qPCR plates containing the master mix according to the table below. The plates were sealed, gently vortexed, and spun down before the run. The volumes were adjusted accordingly in some instances where the reaction was carried in 20 uL. The table below summarizes the components of the RT-qPCR reactions:
(§2) The RT-qPCR reaction was performed using a QuantStudio (ThermoFisher) under the following fast cycling conditions. All samples and standards were analyzed at least in duplicate. In some instances, bulk room temperature (RT) step of 5-10 minutes was completed for all plates before proceeding with qPCR. The table below summarizes the PCR cycle:
(§3) The data analysis was performed by first determining the ΔCt vs the housekeeper gene. This ΔCt was then normalized against the DMSO control (ΔΔCt) and converted to RQ (relative quantification) using the 2^(−ΔΔCt) equation. The RQ were then converted to a percentage response by arbitrarily setting an assay window of 3.5 ΔCt for HTT-CJ and an assay window of 9 ΔCt for HTT-AJ. […] The percentage response was then fitted to the 4 parametric logistic equation to evaluate the concentration dependence of compound treatment. The increase in AJ mRNA is reported as AC50 (compound concentration having 50% response in AJ increase) while the decrease in CJ mRNA levels is reported as IC50 (compound concentration having 50% response in CJ decrease).
(§4) Additional studies were carried out for a larger panel of genes using the protocol provided above. The junction between flanking upstream and downstream exons was used to design canonical junction qPCR assays. At least one of the forward primer, reverse primer or the CY5-labeled 5′ nuclease probe (with 3′ quencher such as ZEN/Iowa Black FQ) was designed to overlap with the exon junction to capture the CJ mRNA transcript. BLAST was used to confirm the specificity of the probeset and parameters such as melting temperature, GC content, amplicon size, and primer dimer formation are considered during their design. Data for the decrease in CJ mRNA levels for three exemplary genes (HTT, SMN2, and Target C) analyzed in this panel are reported as IC50 (compound concentration having 50% response in CJ decrease).

Test [1] concerns HTT. Put plainly: Splicing assay (RT-qPCR on cell lysates) monitoring HTT splice variants: AJ and CJ mRNA. Particulars: concentration having 50% response. In short, it runs like this: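 Cell lysates were analysed by RT-qPCR, with ΔCt taken against a housekeeping gene and normalised to DMSO to give RQ by 2^(−ΔΔCt). Assay windows were set at 9 ΔCt for AJ and 3.5 ΔCt for CJ, and 4-parameter fits gave AC50 for the AJ increase and IC50 for the CJ decrease.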
(Quantitative PCR measures a nucleic acid by following its amplification.)

The subject of another test is SMN2. Put plainly: Gene panel canonical junction qPCR assay, SMN2 CJ mRNA. The note with it: Table 9, CJ mRNA decrease, read-out: SMN2 IC50 (decrease in CJ mRNA levels). Here is the method:
as §1, §2, §3, §4

The subject of test [2] is HTT. Put plainly: Gene panel canonical junction qPCR assay, HTT CJ mRNA. The note with it: Table 9, CJ mRNA decrease, read-out: HTT IC50 (decrease in CJ mRNA levels). Here is the method: as §1, §2, §3, §4
[3] abbreviates: Table 8, decrease in CJ mRNA, read-out: HTT CJ AC50.
[4] abbreviates: Table 8, increase in AJ mRNA, read-out: HTT AJ AC50.
[5] abbreviates: Table 7, decrease in CJ mRNA, read-out: HTT CJ AC50.
The mark [6] stands for this setting: Table 7, increase in AJ mRNA, read-out: HTT AJ AC50.

The IC50 is the concentration needed to halve the response being measured. The AC50 is the concentration giving half of the maximal activity seen. For the compound `CCN(c1ccc(-c2ccc(-c3cn[nH]c3)c3ncsc23)nn1)[C@@H]1C[C@H]2CC[C@@H](C1)N2` [Compound 203, (exo-)-N-ethyl-N-[6-[4-(1H-pyrazol-4-yl)-1,3-benzothiazol-7-yl]pyridazin-3-yl]-8-azabicyclo[3.2.1]octan-3-amine], the values for the IC50 with Target C, with SMN2 and with HTT [2] were 0.1 to 1 µM, below 0.1 µM and 0.1 to 1 µM, respectively. Moreover, the AC50 in the test with HTT [1] (setting [3]) and with HTT [1] (setting [4]) was 0.1 to 1 µM in each case.

With `CN(c1ccc(-c2ccc(-n3cccn3)c3nc[nH]c23)nn1)[C@@H]1C[C@H]2CC[C@@H](C1)N2` [Compound 170], the half-maximal inhibitory concentration (IC50) with Target C is above 10 µM; with SMN2 it was 0.1 to 1 µM; in the test on HTT [2], 1 to 10 µM. The AC50 in the test on HTT [1] (setting [5]) was 0.5 to 5 µM; with HTT [1] (setting [6]), above 5 µM; in the test with HTT [1] (setting [3]), 1 to 10 µM; in the test on HTT [1] (setting [4]) it was 1 to 10 µM.

`CC1(C)CC(Nc2ccc(-c3ccc(-c4cn[nH]c4)c4ncsc34)nn2)CC(C)(C)N1` [Compound 186]: the IC50 with Target C was 0.1 to 1 µM; with SMN2, below 0.1 µM; with HTT [2], below 0.1 µM. In addition, the AC50 was below 0.5 µM in the test with HTT [1] (setting [5]), below 0.5 µM in the test with HTT [1] (setting [6]), below 0.1 µM with HTT [1] (setting [3]) and below 0.1 µM in the test on HTT [1] (setting [4]).

For `CN(c1ccc(-c2ccc(-c3ccc(=O)n(C)c3)c3scnc23)nn1)C1CC(C)(C)NC(C)(C)C1` [Compound 178], the IC50 in the test with Target C, with SMN2 and in the test on HTT [2] was above 10 µM throughout. Besides, the AC50 in the test on HTT [1] (setting [3]) and in the test on HTT [1] (setting [4]) was above 10 µM throughout.

`c1nc2c(-c3cn[nH]c3)ccc(-c3ccc(N4C[C@H]5CNC[C@H]5C4)nn3)c2s1` [Compound 194, 7-{6-[(exo)-hexahydro-1H-pyrrolo[3,4-c]pyrrol-2-yl]pyridazin-3-yl}-4-(1H-pyrazol-4-yl)-1,3-benzothiazole hydrochloride]: the IC50 in the test with Target C is above 10 µM; with SMN2 it was 0.1 to 1 µM; in the test on HTT [2] it was 1 to 10 µM. Also, the figures for the AC50 in the test with HTT [1] (setting [3]) and in the test on HTT [1] (setting [4]) were 1 to 10 µM and above 10 µM, respectively.

With `c1n[nH]cc1-c1ccc(-c2ccc(S[C@@H]3C[C@H]4CC[C@@H](C3)N4)nn2)c2[nH]ncc12` [Compound 221], the half-maximal inhibitory concentration (IC50) in the test on Target C, in the test on SMN2 and in the test on HTT [2] was above 10 µM each time. The half-maximal activity concentration (AC50) in the test on HTT [1] (setting [3]) and with HTT [1] (setting [4]) was above 10 µM each time.

As to `CN(c1ccc(-c2ccc(-c3ccn(C)c(=O)c3)c3scnc23)nn1)C1CC(C)(C)NC(C)(C)C1` [Compound 174], the IC50 with Target C was above 10 µM; in the test with SMN2, 0.1 to 1 µM; in the test on HTT [2], 1 to 10 µM. Besides, the AC50 in the test on HTT [1] (setting [3]) and in the test with HTT [1] (setting [4]) was 1 to 10 µM throughout.

As to `CN(c1ccc(-c2ccc(-c3cn[nH]c3)c3ncsc23)nn1)[C@H]1[C@@H]2CNC[C@@H]21` [Compound 205, (exo-)-N-methyl-N-[6-[4-(1H-pyrazol-4-yl)-1,3-benzothiazol-7-yl]pyridazin-3-yl]-3-azabicyclo[3.1.0]hexan-6-amine], the figures for the IC50 with Target C, in the test with SMN2 and in the test with HTT [2] were above 10 µM, 1 to 10 µM and above 10 µM, respectively. Besides, the AC50 in the test on HTT [1] (setting [3]) and in the test on HTT [1] (setting [4]) was above 10 µM in each case.

Turning to `c1nc2c(-c3cn[nH]c3)ccc(-c3ccc(N4CC5(CCCNC5)C4)nn3)c2s1` [Compound 187, 7-(6-{2,6-diazaspiro [3.5]nonan-2-yl}pyridazin-3-yl)-4-(1H-pyrazol-4-yl)-1,3-benzothiazole], the IC50 with Target C was above 10 µM; with SMN2, 1 to 10 µM; in the test with HTT [2], above 10 µM. The AC50 with HTT [1] (setting [5]) is above 5 µM; with HTT [1] (setting [6]) it was above 5 µM; in the test on HTT [1] (setting [3]), above 10 µM; with HTT [1] (setting [4]), above 10 µM.

With `c1n[nH]cc1-c1ccc(-c2ccc(N3CC4(CCNCC4)C3)nn2)c2[nH]ncc12` [Compound 229], the IC50 with Target C, in the test on SMN2 and in the test with HTT [2] was 1 to 10 µM in each case. The AC50 with HTT [1] (setting [3]) and in the test on HTT [1] (setting [4]) was 1 to 10 µM throughout.

Source of the values: patent publication US20230140983A1, “PYRIDAZINE DERIVATIVES FOR MODULATING NUCLEIC ACID SPLICING” (REMIX THERAPEUTICS INC., priority 2020, published 2023).
